Ki and IC50 data for 4 compounds are collected here from patent US20070185172A1, “Organic compounds” (priority 2004, published 2007).

The target in one experiment is T1, Recombinant human GR (Homo sapiens, UniProt P04150).
T1 construct: purchased Panvera (Madison, Wis., USA); host or cells: baculovirus-infected insect Sf-9 cells
T1 sequence (P04150 1-777): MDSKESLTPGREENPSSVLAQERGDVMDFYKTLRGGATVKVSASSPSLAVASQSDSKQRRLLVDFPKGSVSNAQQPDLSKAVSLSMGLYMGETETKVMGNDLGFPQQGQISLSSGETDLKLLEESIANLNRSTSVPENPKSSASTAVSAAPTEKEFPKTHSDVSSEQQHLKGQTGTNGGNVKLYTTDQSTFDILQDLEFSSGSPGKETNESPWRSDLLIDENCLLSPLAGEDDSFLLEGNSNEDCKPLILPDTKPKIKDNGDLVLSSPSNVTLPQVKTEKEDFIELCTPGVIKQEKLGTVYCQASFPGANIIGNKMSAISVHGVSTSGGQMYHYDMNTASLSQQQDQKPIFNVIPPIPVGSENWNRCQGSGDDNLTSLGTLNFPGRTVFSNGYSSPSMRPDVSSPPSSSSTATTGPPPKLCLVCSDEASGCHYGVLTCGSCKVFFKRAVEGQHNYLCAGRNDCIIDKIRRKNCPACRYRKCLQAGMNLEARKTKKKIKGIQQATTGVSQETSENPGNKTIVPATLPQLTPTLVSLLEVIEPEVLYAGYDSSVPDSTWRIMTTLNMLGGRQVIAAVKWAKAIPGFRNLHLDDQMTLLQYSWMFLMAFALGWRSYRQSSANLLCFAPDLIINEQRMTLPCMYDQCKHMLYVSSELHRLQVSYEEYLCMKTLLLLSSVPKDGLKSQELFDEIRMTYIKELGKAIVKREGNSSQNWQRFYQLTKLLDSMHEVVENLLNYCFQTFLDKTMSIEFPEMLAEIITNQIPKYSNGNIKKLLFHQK
Put plainly: Glucocorticoid receptor binding, fluorescence polarisation with Fluormone-GS1. The note with it: Fluormone-GS1 ligand, 1 hr at room temperature, Ki calculated from IC50 using the Cheng-Prussoff equation. How it is done:
Binding to the glucocorticoid receptor may be measured in the following assay:
Recombinant human GR expressed in baculovirus-infected insect Sf-9 cells is obtained from Panvera (Madison, Wis., USA), as is GR assay buffer and the proprietary fluorescent ligand Fluormone™-GS1 (200 nM methanol solution). The assay is conducted in 384 well plates by sequential addition of a serially diluted dimethylsulfoxide solution of test compound in water (2 μl), Fluormone™-GS1 (2.2 nM in GR assay buffer, 10 μl) and GR solution (8.8 nM in GR assay buffer, 10 μl). The assay is incubated in the dark at room temperature for 1 hr, prior to fluorescence polarisation measurement using an analyst multiwell instrument with 485 nm excitation and 530 nm emission filters. The concentration of test compound resulting in half-maximum shift in polarisation gives the IC50. Curves are fitted using Origin™ software and Ki values were calculated using the Cheng-Prussoff equation. Compounds of Examples 1, 2, 3, and 4 have Ki values of 0.5, 1.4, 0.4 and 0.2 nM respectively in this assay.

The subject of experiment [1] is TNF-alpha synthesis and release in human macrophage cell line U937. Put plainly: Inhibition of TNF-alpha synthesis and release in LPS-stimulated differentiated U937 cells. It counts as cell-based. To be noted: U-937, PMA-differentiated U937 cells, 10 ng/ml LPS, 24 hours, TNFα by sandwich ELISA. How it is done: Inhibition of TNF-alpha synthesis and release may be measured by the following assay:
Human macrophage cell line U937 is obtained from American Type Culture Collection (Rockville Md.) and cultured in RPMI 1640 (Gibco UK) supplemented with 10% FCS (Gibco UK). Cell density is adjusted to 4×10^5 cells/ml and the cells are differentiated by adding phorbal myristate acetate (PMA, 20 ng/ml) for 4 hours. The PMA is removed by washing and the adherent cells are incubated for a further 48 hours at 37° C. in a humidified incubator with 5% CO2. Differentiated U937 cells are removed using cell dissociation buffer (Gibco UK) and the cell density is adjusted to 1×10^6 cells/ml. 100 μl of the cell suspension is placed in 96 well culture plates and 50 μl of either medium or compound at the appropriate concentration in dimethylsulfoxide are added. After a preincubation of 20 minutes at 37° C., the cells are stimulated with 10 ng/ml lipopolysaccharide (LPS, Sigma) and the supernatants are harvested after 24 hours of incubation at 37° C. in a humidified incubator with 5% CO2. Concentration of TNFα in the supernatants is determined by sandwich ELISA using two monoclonal antibodies recognising different epitopes of the cytokine (Pharmingen UK). Binding of the second antibody is analysed by stepwise incubation with streptavidin alkaline phosphatase conjugate (Sigma UK) and 4-nitrophenylphosphate disodium salt. Optical density is measured at 405 nm and cytokine concentration calculated based on results from serial diluations of standard recombinant TNFα. Curves are fitted and IC50 values calculated using Origin™ software.

Broadly, the Ki is the equilibrium dissociation constant of an inhibitor or competing ligand from its target. What is called IC50 is the concentration at which inhibition is half-maximal.

Molecules are shown by their SMILES.

Turning to `CN1C[C@@H]2CC3C4CCC5=CC(=O)C=C[C@]5(C)C4[C@@H](O)C[C@]3(C)[C@]2(C(=O)CO)O1` (stereo partly drawn) [Example 2, (4aR,5S,6aS,6bR,9aS)-5-Hydroxy-6b-(2-hydroxy-acetyl)-4a,6a,8-trimethyl-4a,4b,5,6,6a,6b, 8,9,9a,10a,10b,11,12-tetradecahydro-7-oxa-8-aza-pentaleno[2,1-a]phenanthren-2-one], at Recombinant human GR, the Ki is 1.4 nM. The compound also displayed an IC50 in experiment [1] of 4.95 nM.
Regarding `C[C@]12C=CC(=O)C=C1CCC1C2[C@@H](O)C[C@@]2(C)C1C[C@H]1CN(C3CCCCC3)O[C@]12C(=O)CO` (stereo partly drawn) [Example 4, (4aR,5S,6aS,6bR,9aS)-8-Cyclohexyl-5-hydroxy-6b-(2-hydroxy-acetyl)-4a,6a-dimethyl-4a,4b, 5,6,6a,6b,8,9,9a,10,10a,10b,11,12-tetradecahydro-7-oxa-8-aza-pentaleno[2,1-a]-phenan-thren-2-one], at Recombinant human GR, the inhibition constant Ki is 0.2 nM. The compound further registered a half-inhibitory concentration (IC50) in experiment [1] of 3.57 nM.
As to `CCCN1C[C@@H]2CC3C4CCC5=CC(=O)C=C[C@]5(C)C4[C@@H](O)C[C@]3(C)[C@]2(C(=O)CO)O1` (stereo partly drawn) [Example 1, (4aR,5S,6aS,6bR,9aS)-5-Hydroxy-6b-(2-hydroxy-acetyl)-4a,6a-dimethyl-8-propyl-4a,4b,5,6,6a,6b,8,9,9a,10,10a,10b,11,12-tetradecahydro-7-oxa-8-pentaleno[2,1-a]phenanthren-2-one], the Ki at Recombinant human GR was 0.5 nM. In addition, the IC50 in experiment [1] came to 1.16 nM.
For `CCCCN1C[C@@H]2CC3C4CCC5=CC(=O)C=C[C@]5(C)C4[C@@H](O)C[C@]3(C)[C@]2(C(=O)CO)O1` (stereo partly drawn) [Example 3, (4aR,5S,6aS,6bR,9aS)-8-Butyl-5-hydroxy-6b-(2-hydroxy-acetyl)-4a,6a-dimethyl-4a,4b,5,6,6a,6b,8,9,9a,10,10a,10b,11,12-tetradecahydro-7-oxa-8-aza-pentaleno[2,1-a]phenanthren-2-one], the Ki on Recombinant human GR was 0.4 nM. Also, the half-inhibitory concentration (IC50) in experiment [1] is 0.89 nM.
